Experimental data as given in patent publication US20240366551A1, “MIXTURES AND COMPOSITIONS COMPRISING SULFORAPHANE AND GLYCINE” (SOCIETE DES PRODUITS NESTLE S.A., priority 2021, published 2024).

Tested on: Zebrafish larvae
Experiment: Zebrafish larvae survival assay under hydrogen peroxide oxidative stress
Format: in vivo, zebrafish (AB strain)
Conditions: for larvae survived: compound 12 h before H2O2, survival after 24 h
Procedure: Zebrafish larvae provide a suitable vertebrate model for studying the oxidative stress […]. […] Survival assays were performed according to a protocol described previously^36 with some modifications. Briefly, wild-type zebrafish larvae
(AB strain, ZFIN ID: ZDB-GENO-960809-7) were used. At 3.5 days post fertilization (dpf), 24 larvae per condition were placed in a 60-mm petri dish with 5 ml of egg water (0.6 g/L Ocean sea salt, Tecniplast). Compounds of interest were directly added into the egg water for 12 h. Subsequently, compounds were removed at 4 days post fertilization (dpf4) and larvae were transferred to a 96-well plate in a volume of 200 μl fresh egg water containing 2.5 mM hydrogen peroxide (H2O2; Sigma Merck). Survival was monitored after 24 h of treatment.

SMILES: NCC(=O)O [L-glycine]
- larvae survived (vehicle+2.5 mM H2O2+500 μM L-glycine): ~10%

SMILES: C[S+]([O-])CCCCN=C=S (stereo not drawn) [Sfn, 4-methylsulfinylbutyl isothiocyanate]
- Predicted (LS) mean diff (survival, comparison 0 μM vs. treated group, 2.5 mM H2O2, 2 way ANOVA, Tukey's): −7.077
- larvae survived (vehicle+2.5 mM H2O2+1 μM Sfn): ~10%
